Data from US20160177324A1, “NOVEL PROTEIN AND GENE RELATED TO FLAVONOID O-METHYLTRANSFERASE (FOMT) AND THEIR USES THEREFORE” (INSTITUTE OF BOTANY, THE CHINESE ACADEMY OF SCIENCES, priority 2013, published 2016).
Where two headings read alike, the source gives them in different places.

Legend:
PsFOMT [1] = test: In vitro enzyme assay and kinetics of recombinant PsFOMT with flavonoid substrates; assay type: biochemical, Paeonia suffruticosa cv. 'Gunpohden'; design: key to Vmax / Kcat × 10 / Kcat/Km / Specific Activity: —: no product detected; conditions: for Kcat × 10 / Kcat/Km / Specific Activity / Vmax: purified recombinant PsFOMT, 200 μM SAM, 1 mM MgCl2, pH 7.5, 35° C., means (SE) of triplicate assays; for catalytical efficiency of PsFOMT fusion protein for substrate / methylation of substrate by PsFOMT: in the presence of SAM
Text: Full length FOMTs were amplified by primers SEQ No.7 & 8 in which restriction enzyme NdeI and BamHI site were introduced to the 5'-end and 3'-end, respectively. The DNA fragment of interest was ligated into the […]3 vector, and then the recombinant plasmid was transducted into DH5a. The FOMT cDNAs were sequenced to verify that no mutation occurred. The recombinant plasmid was isolated and digested with Ndel and BamHI. Subsequently, the fragment was ligated to the NdeI and BamHI excised expression vector pMAL-[…] with a MBP tag to yield pMAL-PsFOMT and pMAL-PtFOMT (FIG. 3). The correct construction tested by sequencing was introduced into E. coli strain BL21. E. coli harboring pMAL-PsFOMT and pMAL-PtFOMT were cultivated in 2 mL LB liquid medium containing glucose, supplemented by 100 μg/mL ampicillin until OD600 reached 0.4-0.5. After addition of isopropyl β-D-thiogalactopyranoside (IPTG) to a final concentration of 0.1 mM, the cells were further cultured at 16° C. for 20 h. Harvest the cells by centrifugation and discard the supernatant. The cells were resuspended in column buffer (20 mM Tris-HCl, 200 mM NaCl 1 mM EDTA, 10 mM β-mercaptoethanol, pH 7.4), and disrupted by sonication in an ice-water bath (Lan, T., et al., Extensive functional diversification of the Populus glutathione S-transferase supergene family. Plant Cell, 2009. 21(12): p. 3749-3766.). In each case, the homogenate was then subjected to centrifugation at 10,000 g for 10 min at 4° C. The resultant particulate material and a small portion of the supernatant were analyzed by SDS-PAGE. The rest of the supernatant was loaded onto an amylose resin column (NEB) that had been pre-equilibrated with column buffer. The overexpressed fusion protein bound to the column was eluted with column buffer plus 10 mM maltose. The concentration of purified fusion protein was detected by UV absorbance at 280 nm. As a control, BL21 cells transformed with an empty pMAL-[…] vector were assayed. The purified protein was stored at -80° C. mixed with 10% glycerol. The reaction system was according to Hugueney et al. with some modification (Hugueney, P., et al., A novel cation-dependent O-methyltransferase involved in anthocyanin methylation in grapevine. Plant Physiology, 2009. 150(4): p. 2057-2070.). Purified recombinant FOMT (2 μg) was assayed in a final volume of 200 μL containing 200 μM SAM, 1 mM MgCl2, 14 mM β-mercaptoethanol, 100 mM Tris, pH 7.5, and 20 μM flavonoid substrates. Incubation was performed at 35° C. and stopped with 200 μL methanol containing 2% formic acid. […] Reaction product was analyzed by a Dionex HPLC system (Sunnyvale, Calif.), equipped with a P680 HPLC pump, an UltiMate 3000 autosampler, a TCC-100 thermostated column compartment and a Dionex PDA100 photodiode array detector. The analytical column was C18 column of ODS 80Ts QA (150 mm×4.6 mm, 5 μm i.d., Tosoh, Tokyo) protected with a C18 guard cartridge (Shanghai ANPEL Scientific Instrument, Shanghai). The following solvent and gradient were used: A, 10% aqueous formic acid; B, methanol; constant gradient from 10 to 36% B within 15 min and back to 10% B in 3 min; the flow rate was 0.8 mL min^-1; Column temperature was maintained at 35° C.; 20 μL of analyte was injected. Chromatograms were obtained at 525 nm for anthocyanins and 350 nm for other flavonoids, and photodiode array spectra were recorded from 200 to 800 nm. Km and Vmax values were calculated from Lineweaver-Burk plots.

PsFOMT [2] = test: as above; assay type: biochemical, Paeonia suffruticosa cv. 'Gunpohden'; design: key: —: no product detected; conditions: purified recombinant PsFOMT, 200 μM SAM, 1 mM MgCl2, pH 7.5, 35° C., substrate 5 to 200 μM, means (SE) of triplicate assays
PtFOMT = test: In vitro enzymatic activity of recombinant PtFOMT with potential substrates; assay type: biochemical, Paeonia tenuifolia; conditions: purified recombinant PtFOMT; means ± SE of triplicate assays
Text: Full length FOMTs were amplified by primers SEQ No.7 & 8 in which restriction enzyme NdeI and BamHI site were introduced to the 5′-end and 3′-end, respectively. The DNA fragment of interest was ligated into the pEASY-T3 vector, and then the recombinant plasmid was transducted into DH5a. The FOMT cDNAs were sequenced to verify that no mutation occurred. The recombinant plasmid was isolated and digested with Ndel and BamHI. Subsequently, the fragment was ligated to the NdeI and BamHI excised expression vector pMAL-c5X with a MBP tag to yield pMAL-PsFOMT and pMAL-PtFOMT (FIG. 3). The correct construction tested by sequencing was introduced into E. coli strain BL21. E. coli harboring pMAL-PsFOMT and pMAL-PtFOMT were cultivated in 2 mL LB liquid medium containing glucose, supplemented by 100 μg/mL ampicillin until OD600 reached 0.4-0.5. After addition of isopropyl β-D-thiogalactopyranoside (IPTG) to a final concentration of 0.1 mM, the cells were further cultured at 16° C. for 20 h. Harvest the cells by centrifugation and discard the supernatant. The cells were resuspended in column buffer (20 mM Tris-HCl, 200 mM NaCl 1 mM EDTA, 10 mM β-mercaptoethanol, pH 7.4), and disrupted by sonication in an ice-water bath (Lan, T., et al., Extensive functional diversification of the Populus glutathione S-transferase supergene family. Plant Cell, 2009. 21(12): p. 3749-3766.). In each case, the homogenate was then subjected to centrifugation at 10,000 g for 10 min at 4° C. The resultant particulate material and a small portion of the supernatant were analyzed by SDS-PAGE. The rest of the supernatant was loaded onto an amylose resin column (NEB) that had been pre-equilibrated with column buffer. The overexpressed fusion protein bound to the column was eluted with column buffer plus 10 mM maltose. The concentration of purified fusion protein was detected by UV absorbance at 280 nm. As a control, BL21 cells transformed with an empty pMAL-c5X vector were assayed. The purified protein was stored at −80° C. mixed with 10% glycerol.
The reaction system was according to Hugueney et al. with some modification (Hugueney, P., et al., A novel cation-dependent O-methyltransferase involved in anthocyanin methylation in grapevine. Plant Physiology, 2009. 150(4): p. 2057-2070.). Purified recombinant FOMT (2 μg) was assayed in a final volume of 200 μL containing 200 μM SAM, 1 mM MgCl2, 14 mM β-mercaptoethanol, 100 mM Tris, pH 7.5, and 20 μM flavonoid substrates. Incubation was performed at 35° C. and stopped with 200 μL methanol containing 2% formic acid. For enzyme kinetic studies, purified FOMT was incubated based on the above condition with the exception that a range of substrate concentrations from 5 to 200 μM were used for Km determination. Reaction product was analyzed by a Dionex HPLC system (Sunnyvale, Calif.), equipped with a P680 HPLC pump, an UltiMate 3000 autosampler, a TCC-100 thermostated column compartment and a Dionex PDA100 photodiode array detector. The analytical column was C18 column of ODS 80Ts QA (150 mm×4.6 mm, 5 μm i.d., Tosoh, Tokyo) protected with a C18 guard cartridge (Shanghai ANPEL Scientific Instrument, Shanghai). […] Chromatograms were obtained at 525 nm for anthocyanins and 350 nm for other flavonoids, and photodiode array spectra were recorded from 200 to 800 nm. Km and Vmax values were calculated from Lineweaver-Burk plots.

[3] = system: cyanidin 3-glucoside 3′-O-methyltransferase (CGMT); conditions: partially purified from Vitis vinifera cell suspension; Bailly et al. 1997; cited from earlier work

SMILES	Kcat × 10 (PsFOMT [1])	Kcat/Km (PsFOMT [1])	Specific Activity (PsFOMT [1])	Vmax (PsFOMT [1])	Km (PsFOMT [2])	catalytical efficiency of PsFOMT fusion protein for substrate (PsFOMT [1])	Km (PsFOMT [2]; read-out: Km)	Specific Activity (PtFOMT)	activity of CGMT with substrate [3]	methylation of substrate by PsFOMT (PsFOMT [1])
OC[C@H]1O[C@@H](Oc2cc3c(O)cc(O)cc3[o+]c2-c2ccc(O)cc2)[C@H](O)[C@@H](O)[C@@H]1O [Pelargonidin 3-O-glucoside]	—	—	—	—	—					
OC[C@H]1O[C@@H](Oc2cc3c(O[C@@H]4O[C@H](CO)[C@@H](O)[C@H](O)[C@H]4O)cc(O)cc3[o+]c2-c2ccc(O)c(O)c2)[C@H](O)[C@@H](O)[C@@H]1O [Cyanidin 3,5-di-O-glucoside]	127.70 (1.05) s^−1		1788 (15) pkat mg^−1	17.88 (0.25) nM s^−1		high catalytical efficiency	1.06 µM	29.60 ± 3.47 pkat mg^−1		
O=C(/C=C/c1ccc(O)cc1)OC[C@H]1O[C@@H](Oc2cc3c(O)cc(=O)cc-3oc2-c2ccc(O)c(O)c2)[C@H](O)[C@@H](O)[C@@H]1O [cyanidin 3-p-coumaroyl glucoside]									no activity	
O=C1C[C@@H](c2ccc(O)cc2)Oc2cc(O)cc(O)c21 [Naringenin]	—	—	—	—	—					
O=C(O)/C=C/c1ccc(O)c(O)c1 [Caffeic acid]	—	—	—	—	—					
OC[C@H]1O[C@@H](Oc2cc3c(O)cc(O)cc3[o+]c2-c2ccc(O)c(O)c2)[C@H](O)[C@@H](O)[C@H]1O [Cyanidin 3-O-galactoside]	217.90 (36.48) s^−1		3138 (525) pkat mg^−1	39.22 (6.57) nM s^−1			31.7 µM			can be methylated
C[C@@H]1O[C@@H](OC[C@H]2O[C@@H](Oc3c(-c4ccc(O)c(O)c4)oc4cc(O)cc(O)c4c3=O)[C@H](O)[C@@H](O)[C@@H]2O)[C@H](O)[C@H](O)[C@H]1O [Quercetin 3-O-rutinoside]	192.11 (4.41) s^−1		2744 (135) pkat mg^−1	27.44 (1.63) nM s^−1			12.3 µM	30.20 ± 0.24 pkat mg^−1		can be methylated
OC[C@H]1O[C@@H](Oc2cc3c(O)cc(O)cc3[o+]c2-c2cc(O)c(O)c(O)c2)[C@H](O)[C@@H](O)[C@@H]1O [Delphinidin 3-O-glucoside]	94.72 (1.49) s^−1		1364 (21) pkat mg^−1	17.05 (0.27) nM s^−1			4.11 µM	21.50 ± 0.10 pkat mg^−1		sequentially methylate 3′- and 5′-OH at B ring

More lines, main results first:

Kcat × 10 (PsFOMT [1])	Kcat/Km (PsFOMT [1])	Specific Activity (PsFOMT [1])	Vmax (PsFOMT [1])	Km (PsFOMT [2])	catalytical efficiency of PsFOMT fusion protein for substrate (PsFOMT [1])	Km (PsFOMT [2]; read-out: Km)	SMILES	Specific Activity (PtFOMT)	activity of CGMT with substrate [3]	methylation of substrate by PsFOMT (PsFOMT [1])
—	—	—	—	—			O=c1cc(-c2ccc(O)c(O)c2)oc2cc(O)cc(O)c12 [Luteolin]			
161.99 (0.73) s^−1		2314 (11) pkat mg^−1	11.57 (0.05) nM s^−1		high catalytical efficiency	1.76 µM	OC[C@H]1O[C@@H](Oc2cc3c(O)cc(O)cc3[o+]c2-c2ccc(O)c(O)c2)[C@H](O)[C@@H](O)[C@@H]1O [Cyanidin 3-O-glucoside]	37.98 ± 1.05 pkat mg^−1		
—	—	—	—	—			O=c1c(O)c(-c2ccc(O)cc2)oc2cc(O)cc(O)c12 [Kaempferol]			
9.83 (0.12) s^−1		142 (2) pkat mg^−1	1.77 (0.02) nM s^−1			4.33 µM	O=c1c(O)c(-c2ccc(O)c(O)c2)oc2cc(O)cc(O)c12 [Quercetin]	17.58 ± 0.57 pkat mg^−1		can be methylated
